Tests used:
Type in all cases: functional
[1] = system: Sitobion avenae; experiment: Insecticidal activity against 1 to 3 day old Sitobion avenae apterous virginoparous nymphs raised on artificial diet exposed to compound at 8 mM assessed as intrinsic reproduction rate of increase measured after 4 weeks (reference value: 0.00162 intrinsic reproduction rate of increase)
[2] = system: Sitobion avenae; experiment: Insecticidal activity against 1 to 3 day old Sitobion avenae apterous virginoparous nymphs raised on artificial diet exposed to compound at 0.5 mM assessed as intrinsic reproduction rate of increase measured after 4 weeks (reference value: 0.00162 intrinsic reproduction rate of increase)
[3] = system: Sitobion avenae; experiment: Insecticidal activity against 1 to 3 day old Sitobion avenae apterous virginoparous nymphs raised on artificial diet exposed to compound at 0.3 mM assessed as intrinsic reproduction rate of increase measured after 4 weeks (reference value: 0.00162 intrinsic reproduction rate of increase)
[4] = system: Sitobion avenae; experiment: Insecticidal activity against 1 to 3 day old Sitobion avenae apterous virginoparous nymphs raised on artificial diet exposed to compound at 0.1 mM assessed as intrinsic reproduction rate of increase measured after 4 weeks (reference value: 0.00162 intrinsic reproduction rate of increase)
[5] = system: Sitobion avenae; experiment: Insecticidal activity against 1 to 3 day old Sitobion avenae apterous virginoparous nymphs raised on artificial diet exposed to compound at 0.2 mM assessed as intrinsic reproduction rate of increase measured after 4 weeks (reference value: 0.00162 intrinsic reproduction rate of increase)
[6] = system: Sitobion avenae; experiment: Insecticidal activity against 1 to 3 day old Sitobion avenae apterous virginoparous nymphs raised on artificial diet exposed to compound at 0.05 mM assessed as intrinsic reproduction rate of increase measured after 4 weeks (reference value: 0.00162 intrinsic reproduction rate of increase)

Compound: COc1ccc2[nH]c(=O)oc2c1 [COIXOL]
- Activity [1]: 0
- Activity [2]: 0.00048
- Activity [3]: 0.00075
- Activity [4]: 0.00296
- Activity [5]: 0.00139
- Activity [6]: 0.0015
